# Experimental data taken from ChEMBL document CHEMBL4400521, “Plasma kallikrein cleaves and inactivates apelin-17: Palmitoyl- and PEG-extended apelin-17 analogs as metabolically stable blood pressure-lowering agents” (Eur J Med Chem, 2019).
# Non-standard residues stand in square brackets, D forms with d. Residues, ends and D or L forms follow the SMILES beside them. *: point of attachment. Phe(4-Br) = N[C@@H](Cc1ccc(Br)cc1)C(=O)O; Fmoc = O=C(OCC1c2ccccc2-c2ccccc21)*; PEG6 = NCCOCCOCCOCCOCCOCCOCCC(=O)O; Palmitoyl = CCCCCCCCCCCCCCCC(=O)*; NMeL = CN[C@@H](CC(C)C)C(=O)O; Nle = CCCC[C@H](N)C(=O)O; Aib = CC(C)(N)C(=O)O
# Legend:
# [1] = biological target: Neprilysin (Homo sapiens, UniProt P08473); assay: Substrate activity at recombinant human NEP (Tyr52 to Trp750 residues) expressed in HEK293 cells assessed as enzyme-mediated degradation onset time at 1 mM by MALDI-TOF MS analysis; format: ADME, cell-based; details: hek293, 1000 µM
# Chain of Neprilysin (P08473 whole entry): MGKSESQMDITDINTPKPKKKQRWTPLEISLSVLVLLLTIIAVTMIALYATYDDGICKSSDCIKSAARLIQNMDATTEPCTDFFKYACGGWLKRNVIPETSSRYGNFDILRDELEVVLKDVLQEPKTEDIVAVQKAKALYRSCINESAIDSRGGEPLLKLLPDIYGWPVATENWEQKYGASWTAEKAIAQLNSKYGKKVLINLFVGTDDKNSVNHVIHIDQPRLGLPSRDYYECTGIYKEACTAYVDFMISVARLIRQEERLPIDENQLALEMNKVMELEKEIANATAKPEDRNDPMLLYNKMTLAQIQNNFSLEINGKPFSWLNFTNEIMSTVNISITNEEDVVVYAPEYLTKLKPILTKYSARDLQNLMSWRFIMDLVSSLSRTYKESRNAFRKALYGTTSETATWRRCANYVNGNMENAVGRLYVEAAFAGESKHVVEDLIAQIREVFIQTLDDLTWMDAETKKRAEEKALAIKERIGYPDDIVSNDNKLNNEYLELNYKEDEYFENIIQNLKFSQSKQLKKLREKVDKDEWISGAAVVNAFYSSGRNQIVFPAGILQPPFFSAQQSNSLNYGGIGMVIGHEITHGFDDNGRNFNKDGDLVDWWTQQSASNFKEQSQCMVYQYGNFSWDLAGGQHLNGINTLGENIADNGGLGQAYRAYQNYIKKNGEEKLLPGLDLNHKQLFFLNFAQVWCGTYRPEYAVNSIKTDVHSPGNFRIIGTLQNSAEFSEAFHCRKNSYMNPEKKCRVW
# [2] = biological target: T1, Plasma kallikrein (Homo sapiens, UniProt P03952); assay: Substrate activity at recombinant human C-terminal His6-tagged KLKB1 (Pro19 to Ser262 residues) expressed in mammalian expression system assessed as enzyme-mediated degradation onset time at 1 mM by MALDI-TOF MS analysis; format: ADME; details: 1000 µM
# T1 sequence (P03952 20-390 limits assumed): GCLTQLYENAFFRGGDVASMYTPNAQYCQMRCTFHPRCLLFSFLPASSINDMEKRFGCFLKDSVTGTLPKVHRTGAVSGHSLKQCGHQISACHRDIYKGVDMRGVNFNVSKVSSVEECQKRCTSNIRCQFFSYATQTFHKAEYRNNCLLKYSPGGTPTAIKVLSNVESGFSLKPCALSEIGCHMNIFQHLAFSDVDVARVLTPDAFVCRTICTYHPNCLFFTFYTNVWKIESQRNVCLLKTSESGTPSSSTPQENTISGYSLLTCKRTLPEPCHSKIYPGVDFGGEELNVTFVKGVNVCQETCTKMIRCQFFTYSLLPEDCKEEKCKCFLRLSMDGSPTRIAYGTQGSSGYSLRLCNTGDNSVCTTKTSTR
# T1 sequence (P03952 391-638 limits assumed): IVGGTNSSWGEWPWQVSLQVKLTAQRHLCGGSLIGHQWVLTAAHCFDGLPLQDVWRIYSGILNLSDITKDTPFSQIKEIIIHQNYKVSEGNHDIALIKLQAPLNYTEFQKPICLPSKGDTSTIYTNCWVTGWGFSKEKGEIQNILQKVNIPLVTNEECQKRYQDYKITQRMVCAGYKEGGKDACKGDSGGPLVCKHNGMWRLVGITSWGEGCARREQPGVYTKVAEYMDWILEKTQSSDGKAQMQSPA
# [3] = biological target: T1, Plasma kallikrein; assay: Substrate activity at recombinant human C-terminal His6-tagged KLKB1 (Pro19 to Ser262 residues) expressed in mammalian expression system assessed as Vmax measured after 30 to 60 mins by LC-MS analysis; format: ADME
# [4] = biological target: T2, Plasma kallikrein (KLKB1) (Homo sapiens, UniProt P03952); assay: (§1) Substrate activity at recombinant human C-terminal His6-tagged KLKB1 (Pro19 to Ser262 residues) expressed in mammalian expression system assessed as compound half life by LC-MS analysis; format: ADME
# T2 sequence (P03952 20-390 limits assumed): as the sequence (P03952 20-390 limits assumed) above
# T2 sequence (P03952 391-638 limits assumed): as the sequence (P03952 391-638 limits assumed) above
# [5] = biological target: Neprilysin (NEP) (Homo sapiens, UniProt P08473); assay: Substrate activity at recombinant human NEP (Tyr52 to Trp750 residues) expressed in HEK293 cells assessed as compound half life by LC-MS analysis; format: ADME, cell-based
# Chain of Neprilysin (NEP) (P08473 whole entry): as the sequence (P08473 whole entry) above
# [6] = biological target: T2, Plasma kallikrein (KLKB1); assay: Substrate activity at KLKB1 in human plasma assessed as compound half life by LC-MS analysis; format: ADME, cell-free
# [7] = biological target: T3, Apelin receptor (Rattus norvegicus, UniProt Q9JHG3); assay: Displacement of [125I]-(Glp1,Nle11,[…])apelin-13 from recombinant rat EGFP-fused apelin receptor expressed in CHO cell membrane measured after 3 hrs; format: cell membranes
# T3 sequence (Q9JHG3 whole entry): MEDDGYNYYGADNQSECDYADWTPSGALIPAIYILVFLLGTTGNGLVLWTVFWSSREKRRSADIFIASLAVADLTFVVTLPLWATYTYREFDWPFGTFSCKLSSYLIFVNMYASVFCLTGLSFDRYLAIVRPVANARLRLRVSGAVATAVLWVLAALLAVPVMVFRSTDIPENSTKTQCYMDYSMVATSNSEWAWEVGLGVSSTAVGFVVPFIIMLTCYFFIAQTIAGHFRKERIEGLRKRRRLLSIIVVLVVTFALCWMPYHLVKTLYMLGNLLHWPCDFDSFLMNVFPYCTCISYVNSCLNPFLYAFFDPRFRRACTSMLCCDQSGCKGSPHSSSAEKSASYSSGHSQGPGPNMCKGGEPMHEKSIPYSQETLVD
# [8] = system: Mus musculus; assay: Blood pressure lowering activity in anesthetized mouse assessed as change in mean arterial blood pressure at 1.4 uM/kg, iv; format: functional
# [9] = biological target: T1, Plasma kallikrein; assay: as §1; format: ADME
# [10] = biological target: T4, Apelin receptor (Homo sapiens, UniProt P35414); assay: Activation of recombinant human APJ expressed in rat Chem5 cells co-expressing Galpha15 by Calcium 6-QF dye based fluorescence assay; format: functional, cell-based
# T4 sequence (P35414 whole entry): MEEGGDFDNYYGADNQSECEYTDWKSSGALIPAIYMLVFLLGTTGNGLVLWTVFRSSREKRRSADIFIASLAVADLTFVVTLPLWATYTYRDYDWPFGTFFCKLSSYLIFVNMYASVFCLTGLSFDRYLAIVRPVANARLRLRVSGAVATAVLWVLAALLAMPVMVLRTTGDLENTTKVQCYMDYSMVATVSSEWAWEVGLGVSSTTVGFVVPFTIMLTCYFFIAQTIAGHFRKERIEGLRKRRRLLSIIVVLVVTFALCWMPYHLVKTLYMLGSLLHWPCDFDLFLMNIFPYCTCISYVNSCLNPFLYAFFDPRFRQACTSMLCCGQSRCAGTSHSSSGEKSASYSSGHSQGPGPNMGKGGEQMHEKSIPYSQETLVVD
# [11] = biological target: T2, Plasma kallikrein (KLKB1); assay: Substrate activity at recombinant human C-terminal His6-tagged KLKB1 (Pro19 to Ser262 residues) expressed in mammalian expression system assessed as Km measured after 30 to 60 mins by LC-MS analysis; format: ADME
# [12] = biological target: T1, Plasma kallikrein; assay: Substrate activity at recombinant human C-terminal His6-tagged KLKB1 (Pro19 to Ser262 residues) expressed in mammalian expression system assessed as Kcat measured after 30 to 60 mins by LC-MS analysis; format: ADME
# [13] = biological target: T1, Plasma kallikrein; assay: Substrate activity at human KLKB1 assessed as ratio of Kcat to Km by spectrofluorimetric method; format: ADME
Compound,Time [1] [h],Time [2] [h],Vmax [3] [µmol/min],half-life [4] [h],half-life [5] [h],half-life [6] [h],IC50 [7] [nM],Activity [8] [mmHg],t1/2 [9] [h],EC50 [10] [nM],Km [11] [µM],Kcat [12] [s⁻¹],Kcat/Km [13] [×10⁴ /Ms]
CSCC[C@H](NC(=O)[C@@H]1CCCN1C(=O)CNC(=O)[C@H](CCCCN)NC(=O)[C@H](Cc1cnc[nH]1)NC(=O)[C@H](CO)NC(=O)[C@H](CC(C)C)NC(=O)[C@H](CCCNC(=N)N)NC(=O)[C@@H]1CCCN1C(=O)[C@H](CCCNC(=N)N)NC(=O)[C@H](CCC(N)=O)NC(=O)[C@H](CCCNC(=N)N)NC(=O)[C@H](CCCNC(=N)N)NC(=O)[C@H](Cc1ccccc1)NC(=O)[C@@H](N)CCCCN)C(=O)N1CCC[C@H]1C(=O)N[C@@H](Cc1ccccc1)C(=O)O,< 0.5,< 0.5,2.947,0.4,0.4,0.02,0.025,-20,–,–,–,–,–
CCCC[C@H](NC(=O)[C@@H]1CCCN1C(=O)CNC(=O)[C@H](CCCCN)NC(=O)[C@H](Cc1c[nH]cn1)NC(=O)[C@H](CO)NC(=O)[C@H](CC(C)C)NC(=O)[C@H](CCCNC(=N)N)NC(=O)[C@@H]1CCCN1C(=O)[C@H](CCCNC(=N)N)NC(=O)[C@H](CCC(N)=O)NC(=O)[C@H](CCCNC(=N)N)NC(=O)[C@H](CCCNC(=N)N)NC(=O)[C@H](Cc1ccccc1)NC(=O)[C@@H](N)CCCCN)C(=O)NC(C)(C)C(=O)N[C@@H](Cc1ccc(Br)cc1)C(=O)O (H-KFRRQRPRLSHKGP[Nle][Aib][Phe(4-Br)]-OH),< 1,< 0.5,–,–,0.7,0.3,–,-32,1,4.1,–,–,–
CCCC[C@H](NC(=O)[C@@H]1CCCN1C(=O)CNC(=O)[C@H](CCCCN)NC(=O)[C@H](Cc1c[nH]cn1)NC(=O)[C@H](CO)NC(=O)[C@H](CC(C)C)N(C)C(=O)[C@H](CCCNC(=N)N)NC(=O)[C@@H]1CCCN1C(=O)[C@H](CCCNC(=N)N)NC(=O)[C@H](CCC(N)=O)NC(=O)[C@H](CCCNC(=N)N)NC(=O)[C@H](CCCNC(=N)N)NC(=O)[C@H](Cc1ccccc1)NC(=O)[C@@H](N)CCCCN)C(=O)NC(C)(C)C(=O)N[C@@H](Cc1ccc(Br)cc1)C(=O)O (H-KFRRQRPR[NMeL]SHKGP[Nle][Aib][Phe(4-Br)]-OH),–,–,–,> 30,0.9,1.2,–,-36,–,4.9,–,–,–
CCCC[C@H](NC(=O)[C@@H]1CCCN1C(=O)CNC(=O)[C@H](CCCCN)NC(=O)[C@H](Cc1cnc[nH]1)NC(=O)[C@H](CO)NC(=O)[C@H](CC(C)C)NC(=O)[C@H](CCCNC(=N)N)NC(=O)[C@@H]1CCCN1C(=O)[C@H](CCCNC(=N)N)NC(=O)[C@H](CCC(N)=O)NC(=O)[C@@H](N)CCCNC(=N)N)C(=O)NC(C)(C)C(=O)N[C@@H](Cc1ccc(Br)cc1)C(=O)O (H-RQRPRLSHKGP[Nle][Aib][Phe(4-Br)]-OH),> 36,–,–,–,–,–,–,3,–,–,–,–,–
CCCC[C@H](NC(=O)[C@@H]1CCCN1C(=O)CNC(=O)[C@H](CCCCN)NC(=O)[C@H](Cc1cnc[nH]1)NC(=O)[C@H](CO)NC(=O)[C@H](CC(C)C)N(C)C(=O)[C@H](CCCNC(=N)N)NC(=O)[C@@H]1CCCN1C(=O)[C@H](CCCNC(=N)N)NC(=O)[C@H](CCC(N)=O)NC(=O)[C@@H](N)CCCNC(=N)N)C(=O)NC(C)(C)C(=O)N[C@@H](Cc1ccc(Br)cc1)C(=O)O (H-RQRPR[NMeL]SHKGP[Nle][Aib][Phe(4-Br)]-OH),–,–,–,–,–,–,–,-15,–,–,–,–,–
CCCCCCCCCCCCCCCC(=O)N[C@@H](CCCCN)C(=O)N[C@@H](Cc1ccccc1)C(=O)N[C@@H](CCCNC(=N)N)C(=O)N[C@@H](CCCNC(=N)N)C(=O)N[C@@H](CCC(N)=O)C(=O)N[C@@H](CCCNC(=N)N)C(=O)N1CCC[C@H]1C(=O)N[C@@H](CCCNC(=N)N)C(=O)N[C@@H](CC(C)C)C(=O)N[C@@H](CO)C(=O)N[C@@H](Cc1cnc[nH]1)C(=O)N[C@@H](CCCCN)C(=O)NCC(=O)N1CCC[C@H]1C(=O)N[C@@H](CCCC)C(=O)NC(C)(C)C(=O)N[C@@H](Cc1ccc(Br)cc1)C(=O)O (Palmitoyl-KFRRQRPRLSHKGP[Nle][Aib][Phe(4-Br)]-OH),1,1,–,1.5,1,4.5,–,-41,–,–,–,–,–
CCCCCCCCCCCCCCCC(=O)N[C@@H](CCCCN)C(=O)N[C@@H](Cc1ccccc1)C(=O)N[C@@H](CCCNC(=N)N)C(=O)N[C@@H](CCCNC(=N)N)C(=O)N[C@@H](CCC(N)=O)C(=O)N[C@@H](CCCNC(=N)N)C(=O)N1CCC[C@H]1C(=O)N[C@@H](CCCNC(=N)N)C(=O)N(C)[C@@H](CC(C)C)C(=O)N[C@@H](CO)C(=O)N[C@@H](Cc1cnc[nH]1)C(=O)N[C@@H](CCCCN)C(=O)NCC(=O)N1CCC[C@H]1C(=O)N[C@@H](CCCC)C(=O)NC(C)(C)C(=O)N[C@@H](Cc1ccc(Br)cc1)C(=O)O (Palmitoyl-KFRRQRPR[NMeL]SHKGP[Nle][Aib][Phe(4-Br)]-OH),> 36,2,–,> 30,2.1,20.5,–,-12,–,–,–,–,–
CCCC[C@H](NC(=O)[C@@H]1CCCN1C(=O)CNC(=O)[C@H](CCCCN)NC(=O)[C@H](Cc1cnc[nH]1)NC(=O)[C@H](CO)NC(=O)[C@H](CC(C)C)NC(=O)[C@H](CCCNC(=N)N)NC(=O)[C@@H]1CCCN1C(=O)[C@H](CCCNC(=N)N)NC(=O)[C@H](CCC(N)=O)NC(=O)[C@H](CCCNC(=N)N)NC(=O)[C@H](CCCNC(=N)N)NC(=O)[C@H](Cc1ccccc1)NC(=O)[C@H](CCCCN)NC(=O)CCOCCOCCOCCOCCOCCOCCNC(=O)OCC1c2ccccc2-c2ccccc21)C(=O)NC(C)(C)C(=O)N[C@@H](Cc1ccc(Br)cc1)C(=O)O ({Fmoc-PEG6}-KFRRQRPRLSHKGP[Nle][Aib][Phe(4-Br)]-OH),12,1,–,> 30,–,18,–,-48,–,6.3,–,–,–
CCCC[C@H](NC(=O)[C@@H]1CCCN1C(=O)CNC(=O)[C@H](CCCCN)NC(=O)[C@H](Cc1cnc[nH]1)NC(=O)[C@H](CO)NC(=O)[C@H](CC(C)C)N(C)C(=O)[C@H](CCCNC(=N)N)NC(=O)[C@@H]1CCCN1C(=O)[C@H](CCCNC(=N)N)NC(=O)[C@H](CCC(N)=O)NC(=O)[C@H](CCCNC(=N)N)NC(=O)[C@H](CCCNC(=N)N)NC(=O)[C@H](Cc1ccccc1)NC(=O)[C@H](CCCCN)NC(=O)CCOCCOCCOCCOCCOCCOCCNC(=O)OCC1c2ccccc2-c2ccccc21)C(=O)NC(C)(C)C(=O)N[C@@H](Cc1ccc(Br)cc1)C(=O)O ({Fmoc-PEG6}-KFRRQRPR[NMeL]SHKGP[Nle][Aib][Phe(4-Br)]-OH),> 36,2,–,> 30,–,27,–,-53,–,2.5,–,–,–
H-SLSSMTRVVGG-OH,–,–,–,–,–,–,–,–,–,–,2.4,0.001,0.4
